“Also recorded” adds a separate entry of the source. [ ]: non-standard residue; d: D form. The star is where a group is joined. FITC = O=C1OC2(c3ccc(O)cc3Oc3cc(O)ccc32)c2ccc(NC(=S)*)cc21; Dap = NC[C@H](N)C(=O)O
What was measured:
MYST2 = MYST2 (Homo sapiens, UniProt O95251); test: Acetyltransferase assay with acetyl-CoA analogs and H4 (1-20) peptide (MS); conditions: MYST2 with H4 (1-20) peptide, mass spectrometric analysis
GCN5 = GCN5 (Homo sapiens, UniProt Q92831); test: Acetyltransferase assay with acetyl-CoA analogs and H3 (1-20) peptide (MS); conditions: GCN5 with H3 (1-20) peptide, mass spectrometric analysis
Chain of GCN5 (Q92831 492-658 limits assumed): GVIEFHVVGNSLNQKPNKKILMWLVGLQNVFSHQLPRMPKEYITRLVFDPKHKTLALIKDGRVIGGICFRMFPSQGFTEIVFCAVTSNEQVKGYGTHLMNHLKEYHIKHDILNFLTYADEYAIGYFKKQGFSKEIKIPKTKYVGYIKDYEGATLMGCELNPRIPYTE

TIP60 = TIP60 (Homo sapiens, UniProt Q92993); test: Acetyltransferase assay with acetyl-CoA analogs and H4 (1-20) peptide (MS); conditions: TIP60 with H4 (1-20) peptide, mass spectrometric analysis
Chain of TIP60 (Q92993 whole entry): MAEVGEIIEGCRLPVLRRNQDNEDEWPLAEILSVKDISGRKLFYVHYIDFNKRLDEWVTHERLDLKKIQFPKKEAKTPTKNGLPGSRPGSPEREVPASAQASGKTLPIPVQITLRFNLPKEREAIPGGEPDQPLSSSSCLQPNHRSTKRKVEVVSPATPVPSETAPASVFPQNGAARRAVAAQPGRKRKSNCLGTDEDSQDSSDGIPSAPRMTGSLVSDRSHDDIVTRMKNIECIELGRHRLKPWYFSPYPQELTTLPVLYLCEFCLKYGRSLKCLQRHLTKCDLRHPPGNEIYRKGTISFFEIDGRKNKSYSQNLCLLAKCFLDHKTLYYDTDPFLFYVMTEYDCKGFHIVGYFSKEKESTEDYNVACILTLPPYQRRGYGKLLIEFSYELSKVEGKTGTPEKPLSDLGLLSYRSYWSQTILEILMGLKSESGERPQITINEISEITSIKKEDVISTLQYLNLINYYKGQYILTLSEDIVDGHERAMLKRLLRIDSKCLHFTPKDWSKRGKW

[1] = Hydrolysis of acetyl CoA and fluoroacetyl CoA (DTNB); type: physicochemical; conditions: 10 μM, 100 mM Tris buffer (pH 7.2)
Method: Hydrolysis of Acetyl CoA and Fluoroacetyl CoA: The hydrolysis rate of acetyl-CoA and fluoroacetyl CoA were measured in a similar manner to reported procedures (Weeks A M et al., 2010, Biochemistry, 49:9269-9279; Wagner G R et al., 2017, Cell Metab., 25:823-837). Briefly, 10 μM of the acetyl or fluoroacetyl CoA was incubated in 100 mM Tris buffer mixed with 0.5 mM DTNB, pH 7.2. The increase in the solution's absorbance at 412 nm was recorded, as a result of the reaction between DTNB and the free thiol in the released CoA hydrolysis product. A CoA standard curve was generated by measuring the absorbance of serially diluted CoA stock (200 μM) in the same assay buffer.

[2] = Stability and reactivity of model substrates and probes in cell lysates; conditions: human, pH 8.5
[3] = Bioorthogonality of the fluorine-thiol displacement reaction: incubation with glutathione or cysteine (1H NMR); type: physicochemical; conditions: 25 mM each, pH 8.5, 37° C., 24 h
Method: Bioorthogonality of the Fluorine-Thiol Displacement Reaction (FIG. 30) The common substrate 2-fluoro-N-phenethylacetamide (compound (3)) was dissolved in MeOD as a 10× stock solution (250 mM). Sixty microliter of the stock was mixed with another 60 μL of either the reduced glutathione or cysteine 10× stock solution (250 mM in D2O). The mixture was added with additional deuterated solvents (1:1 mix of deuterated sodium phosphate buffer and MeOD) to make a final volume of 600 μL (pH adjusted to 8.5). The resulting solution was incubated at 37° C. water bath for 24 h, and then analyzed by ^1H NMR spectroscopy.

[4] = Measurement of FTDR reaction kinetics; type: physicochemical; conditions: DMF/Tris buffer (70/30), pH 8.5, 37° C.; 40, 80, 160 mM; average of three experiments
Method: Measurement of Reaction Kinetics: Reaction kinetics were evaluated similarly to reported procedures (Addy P S et al., 2017, J. Am. Chem. Soc., 139:11670-11673; Sundhoro M et al., 2017, Angew. Chem. Int. Ed. Engl., 56:12117-12121.). Stock solutions of substrate (3) and nucleophiles were prepared in DMF, while TCEP stock (pH 7.4) was dissolved in H2O. Equal concentrations (40 mM, 80 mM, or 160 mM) of the substrate and the nucleophile (3,4,5-trimethoxybenzenethiol or 2,4,6-trimethoxybenzenethiol) were mixed in 40 μL of DMF/Tris buffer (70/30). Over excess amount of TCEP (100 mM, 200 mM, or 400 mM) was added, and the final pH of the mixture was adjusted to 8.5 to initiate the reaction at 37° C. Time dependent measurements were carried out by taking 2 μL of the reaction mixture at indicated time points (30 min, 60 min, 90 min, 120 min, 150 min, 180 min), and mixing it with 18 μL 0.5% TFA/ACN to quench the reaction. The samples were eventually analyzed by LC/MS and the concentrations of product and reactant were determined by comparing peak area ratios with those of the standard curves. […]; t: reaction time; [X]t: concentration of either reactant at time t).

in vitro = conditions: human, pH 8.5
DLD-1 cells [5] = test: Cell penetration assay of FITC-labelled Axin analogues (confocal imaging); type: cell-based; conditions: for cellular uptake by confocal fluorescence microscopy (in words): 10 μM; for Mean Intensity Ratio (cell penetration): 10 μM FITC-labelled peptide, 12 h, intracellular intensity of peptide 51 normalized as 1
Method: Cell Penetration Assay: DLD-1 cells were seeded on 35 mm optical dishes at 3e5 per well and were incubated overnight at 37° C./5% CO2. […] Cells were imaged in buffer mimicking the physiological conditions in the cytoplasm (20 mM HEPES, 110 mM KOAc, 5 mM NaOAc, 2 mM MgOAc, 1 mM EGTA, pH 7.3).

DLD-1 cells [6] = conditions: then 10 μM peptide 4 h; for Mean Intensity Ratio, no pathway blocker: DLD-1 cells pretreated with solvent vehicle only, normalized as 1; for Mean Intensity Ratio, Chlorpromazine / Mean Intensity Ratio, Cytochalasin D / Mean Intensity Ratio, Nystatin / Mean Intensity Ratio, NaClO3: DLD-1 cells, ratio to no blocker; for Mean Intensity Ratio, Chlorpromazine: 1 h 5 μg/mL chlorpromazine (clathrin-dependent endocytosis); for Mean Intensity Ratio, Cytochalasin D: 1 h 10 μg/mL cytochalasin D (actin polymerization); for Mean Intensity Ratio, Nystatin: 1 h 25 μg/mL nystatin (caveolin-mediated endocytosis); for Mean Intensity Ratio, NaClO3: 1 h 80 mM NaClO3 (proteoglycan synthesis)
Method: Images were analyzed with NIH ImageJ software. […] Particles in the extracellular matrix that the “analyze particle” function selected were manually deselected and removed from the data set (FIG. 58B).
After this, the FITC-labelled peptide analogues were added at a final concentration of 10 μM, and the mixture was incubated at 37° C./5% CO2 for 4 h. […] After another round of washing, cells were imaged in the buffer as aforementioned. Subsequent CellTiter-Glo viability measurements were also performed right after confocal imaging.

DLD-1 cells [7] = conditions: 10 μM, 12 h
Method: Cell Viability Assay: Wild type DLD-1 cells were cultured in complete growth media (RPMI, 10% FBS and 1% penicillin/streptomycin) at 37° C./5% CO2. After harvesting, cells were placed onto 96-well flat bottom white plates at 10e4 cells/well, and were incubated overnight. […] The chemiluminescent signals from the control sample (treated with 0 μM peptides) were used as the 100% control. […] For DLD-1 cells, after confocal imaging for the penetration pathway studies, viability measurements were carried out similarly via directly mixing with the CellTiter-Glo reagent. Cells treated with vehicle groups were also analyzed and counted as the 100% control.

[8] = biological target: T1, beta-catenin protein (Abcam, ab63175) (UniProt P35222 1-781, limits assumed); test: ELISA; beta-catenin coated on plate
T1 construct: Bought protein coated on the ELISA plate; also called β-catenin; target protein β-catenin
T1 sequence (looked up): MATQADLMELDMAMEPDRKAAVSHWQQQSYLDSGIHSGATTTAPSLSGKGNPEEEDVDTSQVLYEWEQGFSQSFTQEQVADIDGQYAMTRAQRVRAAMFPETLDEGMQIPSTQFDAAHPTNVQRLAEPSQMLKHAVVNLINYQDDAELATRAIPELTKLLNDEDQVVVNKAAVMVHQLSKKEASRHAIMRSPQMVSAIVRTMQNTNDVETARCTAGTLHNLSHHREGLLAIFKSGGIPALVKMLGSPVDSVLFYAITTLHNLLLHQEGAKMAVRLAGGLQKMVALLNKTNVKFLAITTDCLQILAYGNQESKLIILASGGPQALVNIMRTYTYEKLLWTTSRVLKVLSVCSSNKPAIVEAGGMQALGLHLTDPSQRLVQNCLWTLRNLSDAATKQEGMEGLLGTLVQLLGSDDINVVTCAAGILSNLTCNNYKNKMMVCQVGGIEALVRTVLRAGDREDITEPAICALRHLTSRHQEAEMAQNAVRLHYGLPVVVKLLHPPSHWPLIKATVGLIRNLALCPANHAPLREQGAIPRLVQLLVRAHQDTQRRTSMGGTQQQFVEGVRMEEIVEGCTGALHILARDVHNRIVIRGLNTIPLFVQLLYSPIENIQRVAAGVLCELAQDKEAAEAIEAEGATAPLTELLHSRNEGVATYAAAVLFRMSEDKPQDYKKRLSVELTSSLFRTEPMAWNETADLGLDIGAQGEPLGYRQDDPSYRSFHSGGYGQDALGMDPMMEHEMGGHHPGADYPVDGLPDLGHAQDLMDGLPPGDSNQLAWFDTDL

Chain of MYST2 (O95251 whole entry): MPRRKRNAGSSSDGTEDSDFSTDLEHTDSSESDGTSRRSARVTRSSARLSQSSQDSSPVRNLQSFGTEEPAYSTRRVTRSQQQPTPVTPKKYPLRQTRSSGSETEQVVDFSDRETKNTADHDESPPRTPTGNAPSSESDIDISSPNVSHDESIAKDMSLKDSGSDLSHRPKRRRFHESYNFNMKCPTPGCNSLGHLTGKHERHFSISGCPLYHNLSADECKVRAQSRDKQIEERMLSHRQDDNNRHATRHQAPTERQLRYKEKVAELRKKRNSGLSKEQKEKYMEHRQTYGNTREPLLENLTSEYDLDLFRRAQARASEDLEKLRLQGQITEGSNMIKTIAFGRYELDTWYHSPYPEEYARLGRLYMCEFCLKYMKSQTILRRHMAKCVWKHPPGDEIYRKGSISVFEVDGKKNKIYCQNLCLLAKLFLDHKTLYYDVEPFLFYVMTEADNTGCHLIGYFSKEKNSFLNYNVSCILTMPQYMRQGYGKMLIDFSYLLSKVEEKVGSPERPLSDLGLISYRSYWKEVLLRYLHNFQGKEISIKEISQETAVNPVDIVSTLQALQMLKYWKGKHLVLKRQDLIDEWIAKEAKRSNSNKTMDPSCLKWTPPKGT

## CC(=O)SCCNC(=O)CCNC(=O)[C@H](O)C(C)(C)COP(=O)(O)OP(=O)(O)OC[C@H]1O[C@@H](n2cnc3c(N)ncnc32)[C@H](O)[C@@H]1OP(=O)(O)O [Ac-CoA, acetyl-CoA]
MYST2
  labelling of histone peptide substrate by acetyltransferase: successful acetyl or acetyl analog labelling
GCN5
  labelling of histone peptide substrate by acetyltransferase: successful acetyl or acetyl analog labelling
TIP60
  labelling of histone peptide substrate by acetyltransferase: successful acetyl or acetyl analog labelling
[1]
  pseudo-first-order rate constant of hydrolysis: 0.0002 s⁻¹

## CC(C)(COP(=O)(O)OP(=O)(O)OCC1OC(n2cnc3c(N)ncnc32)C(O)C1OP(=O)(O)O)[C@@H](O)C(=O)NCCC(=O)NCCSC(=O)CF (stereo partly shown) [F-Ac-CoA, fluoroacetyl-CoA]
MYST2
  labelling of histone peptide substrate by acetyltransferase: successful acetyl or acetyl analog labelling
GCN5
  labelling of histone peptide substrate by acetyltransferase: successful acetyl or acetyl analog labelling
TIP60
  labelling of histone peptide substrate by acetyltransferase: successful acetyl or acetyl analog labelling
[1]
  pseudo-first-order rate constant of hydrolysis: 0.0075 s⁻¹

## O=C(CF)NCCc1ccccc1 [Peptide 3]
[2]
  recovery at 14 h, 1 mM: 100%
[3]
  reactivity with cysteine: no reaction was observed; also recorded: stable
  reactivity with glutathione: no reaction was observed; also recorded: stable

## C#CCCC(=O)SCCNC(=O)CCNC(=O)[C@H](O)C(C)(C)COP(=O)(O)OP(=O)(O)OCC1OC(n2cnc3c(N)ncnc32)C(O)C1OP(=O)(O)O (stereo partly shown) [Peptide 4-PY-CoA, 4-pentynoyl CoA]
MYST2
  labelling of histone peptide substrate by acetyltransferase: failed to incorporate
GCN5
  labelling of histone peptide substrate by acetyltransferase: failed to incorporate
TIP60
  labelling of histone peptide substrate by acetyltransferase: failed to incorporate

## COc1cc(S)cc(OC)c1OC [Peptide 12]
[4]
  second order rate constant of FTDR reaction with (3) (2-fluoro-N-phenethylacetamide): (0.37±0.06)×10^−3 M^−1 S^−1

## COc1cc(OC)c(S)c(OC)c1 [Peptide 13]
In vitro
  recovery at 14 h, 1 mM: 61.8%
[4]
  second order rate constant of FTDR reaction with (3) (2-fluoro-N-phenethylacetamide): (1.03±0.06)×10^−3 M^−1 S^−1

## CC[C@H](C)[C@@H]1NC(=O)[C@@H](NC(=O)[C@H](CCC(N)=O)NC(=O)[C@@H]2CCCN2C(=O)[C@H](Cc2c[nH]c3ccccc23)NC(=O)[C@H](CCCNC(=N)N)NC(=O)COCCOCCNC(=S)Nc2ccc3c(c2)C(=O)OC32c3ccc(O)cc3Oc3cc(O)ccc32)CNC(=O)CSCc2cccc(c2)CSCC(=O)NC[C@@H](C(=O)N[C@@H](Cc2c[nH]cn2)C(=O)N[C@H](C(=O)N[C@@H](CCCNC(=N)N)C(=O)N[C@@H](CCCNC(=N)N)C(=O)N[C@H](C(=O)N[C@@H](Cc2c[nH]c3ccccc23)C(=O)N[C@@H](CCCNC(=N)N)C(N)=O)C(C)C)C(C)C)NC(=O)[C@H](CC(=O)O)NC(=O)[C@H](CC(C)C)NC1=O [Peptide 48]
DLD-1 cells [5]
  cellular uptake by confocal fluorescence microscopy (in words): significant cellular uptake
  Mean Intensity Ratio (cell penetration): 4.86±0.15
DLD-1 cells [6]
  Mean Intensity Ratio, no pathway blocker: 1.00 ± 0.04
  Mean Intensity Ratio, Chlorpromazine: 0.13 ± 0.01
  Mean Intensity Ratio, Cytochalasin D: 0.10 ± 0.01
  Mean Intensity Ratio, Nystatin: 1.16 ± 0.03
  Mean Intensity Ratio, NaClO3: 0.12 ± 0.01
DLD-1 cells [7]
  effect on cell viability: did not affect the viability

## CC[C@H](C)[C@@H]1NC(=O)[C@@H](NC(=O)[C@H](CCC(N)=O)NC(=O)[C@@H]2CCCN2C(=O)[C@H](Cc2c[nH]c3ccccc23)NC(=O)[C@H](CCCNC(=N)N)NC(=O)COCCOCCNC(=S)Nc2ccc3c(c2)C(=O)OC32c3ccc(O)cc3Oc3cc(O)ccc32)CNC(=O)CSCc2cccc(c2)CSCC(=O)NC[C@H](C(=O)N[C@@H](Cc2c[nH]cn2)C(=O)N[C@H](C(=O)N[C@@H](CCCNC(=N)N)C(=O)N[C@@H](CCCNC(=N)N)C(=O)N[C@H](C(=O)N[C@@H](Cc2c[nH]c3ccccc23)C(=O)N[C@@H](CCCNC(=N)N)C(N)=O)C(C)C)C(C)C)NC(=O)[C@H](CC(=O)O)NC(=O)[C@H](CC(C)C)NC1=O [Peptide 50]
DLD-1 cells [5]
  cellular uptake by confocal fluorescence microscopy (in words): significant cellular uptake
  Mean Intensity Ratio (cell penetration): 5.05±0.14
DLD-1 cells [6]
  Mean Intensity Ratio, no pathway blocker: 1.00 ± 0.02
  Mean Intensity Ratio, Chlorpromazine: 0.16 ± 0.01
  Mean Intensity Ratio, Cytochalasin D: 0.99 ± 0.02
  Mean Intensity Ratio, Nystatin: 0.17 ± 0.01
  Mean Intensity Ratio, NaClO3: 0.20 ± 0.01
DLD-1 cells [7]
  effect on cell viability: did not affect the viability

B1: FITC labelled fluoroacetamide containing L,L substrate (47), unstapled Axin-derived peptide analogue (peptide)
peptide: {FITC}-RWPQ[Dap](fluoroacetyl)ILD[Dap](fluoroacetyl)HVRRVWR-NH2
notes: also called peptide (47); unstapled peptide (47)
[8]
  EC50: ~300 nM

From patent US20230138393A1, “LINKING AMINO ACID SEQUENCES, MANUFACTURING METHOD THEREOF, AND USE THEREOF” (priority 2020, published 2023)
